The results in this text go back to patent US7582797B2, “Derivatives of 4,4′-dithiobis-(3-aminobutane-1-sulfonates) and compositions comprising the same” (Institute National de la Sante et de la Recherche Medicale …, priority 2003, dated 2009).

As a reminder, the Ki is a measure of affinity in units of concentration, obtained from inhibition or displacement.

This test concerns the target T1, recombinant aminopeptidase A (UniProt P16406).
T1 sequence (P16406 1-945): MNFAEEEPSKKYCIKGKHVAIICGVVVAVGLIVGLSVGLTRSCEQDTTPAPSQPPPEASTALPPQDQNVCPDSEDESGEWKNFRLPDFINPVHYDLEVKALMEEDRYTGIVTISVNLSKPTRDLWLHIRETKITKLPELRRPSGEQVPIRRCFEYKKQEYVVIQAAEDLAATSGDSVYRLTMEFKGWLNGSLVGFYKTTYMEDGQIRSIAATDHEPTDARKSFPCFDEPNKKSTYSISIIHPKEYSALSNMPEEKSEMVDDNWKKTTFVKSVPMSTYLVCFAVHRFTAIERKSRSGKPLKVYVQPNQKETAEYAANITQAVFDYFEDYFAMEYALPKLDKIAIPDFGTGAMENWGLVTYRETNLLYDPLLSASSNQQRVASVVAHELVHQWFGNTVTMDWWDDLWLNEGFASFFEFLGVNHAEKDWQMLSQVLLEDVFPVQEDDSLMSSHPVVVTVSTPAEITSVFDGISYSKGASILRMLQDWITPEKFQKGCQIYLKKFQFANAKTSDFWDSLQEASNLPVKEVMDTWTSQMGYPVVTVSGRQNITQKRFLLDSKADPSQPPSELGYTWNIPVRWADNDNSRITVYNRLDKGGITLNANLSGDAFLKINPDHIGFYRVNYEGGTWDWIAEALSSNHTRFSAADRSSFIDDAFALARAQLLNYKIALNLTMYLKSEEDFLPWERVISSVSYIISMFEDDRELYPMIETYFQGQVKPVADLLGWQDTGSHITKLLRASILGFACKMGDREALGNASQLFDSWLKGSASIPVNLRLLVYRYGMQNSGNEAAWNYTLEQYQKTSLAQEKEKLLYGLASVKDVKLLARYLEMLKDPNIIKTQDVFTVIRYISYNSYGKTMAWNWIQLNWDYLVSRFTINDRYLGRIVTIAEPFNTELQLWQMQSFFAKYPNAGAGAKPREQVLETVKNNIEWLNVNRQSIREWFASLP
In words: Determination of the inhibition constants with respect to APA (GluβNa hydrolysis, microplate assay). The test is classed as biochemical. The settings on record: for Ki: recombinant APA, 200 μM GluβNa, pH 7.4 Tris-HCl, 4 mM CaCl2, 37° C. The protocol:
The compounds 5 were tested, in vitro, on recombinant aminopeptidase A in order to determine their affinity for APA.
The assaying of APA activity is based on the protocol of Goldberg, adapted to the microplate assay scale (Pro Bind® 3915) (Chauvel et al., J. Med. Chem., 1994, 37, 1339-1346).
In vitro, in the presence of calcium ions, APA hydrolyzes α-L-glutamyl-β-naphthylamide (gluβNa) to glutamate and β-naphthylamine (βNa). A diazotization reaction in an acidic medium makes it possible to visualize the β-naphthylamine by formation of a violet-colored complex: spectrophotometric measurement then makes it possible to determine the amount of complex formed and, by reference to a standard curve produced with increasing concentrations of β-naphthylamine, to deduce therefrom the enzymatic activity of the sample.
The GluβNa substrate and the β-naphthylamine (Bachem) are solubilized in dimethyl sulfoxide and 0.1N HCl, respectively, and conserved at −20° C. at a concentration of 10^−2M. The diazotization reaction is carried out in the presence of sodium nitrite (87 mM), of ammonium sulfamate (130 mM) and of N-(1-naphthyl)ethylenediamine dihydrochloride (23 mM).
The reaction takes place at pH 7.4 in 50 mM Tris-HCl buffer, in the presence of calcium (4 mM CaCl2); the sample to be assayed is incubated at 37° C. in the presence of a substrate (200 μM GluβNa) and in the presence or absence of various concentrations of the inhibitor to be tested, in a final volume of 100 μl. The reaction is stopped by the addition of 10 μl of 3N HCl. A standard curve for β-naphthylamine in an acidic medium (addition of 10 μl of 0.1N HCl) is produced in parallel.
The following are added to each well:
25 μl of sodium nitrite (mix, wait 5 min at ambient temperature),
50 μl of ammonium sulfamate (stir, wait 5 min at ambient temperature), then
25 μl of 23 mM N-(1-naphthyl)ethylenediamine dihydrochloride (mix, wait for the violet color to stabilize for approximately 30 min at 37° C.).
The absorbance is subsequently measured at 540 nm.
The compound EC 33 ((S)-3-amino-4-mercaptobutylsulfonic acid) described in application WO 99/36066), a monomer of the compound RB 150 (4,4′-dithiobis-3-aminobutane-1-sulfonic acid) described in application WO 2004/007441, was used as a reference compound.

On to `CC(S)C(N)CCS(=O)(=O)O` (stereo not shown) [Compound 5a, 3-Amino-4-mercaptopentane-1-sulfonic acid], for which the Ki was over 100000 nM.

As to `NC(CCS(=O)(=O)O)C(S)c1ccccc1` (stereo not shown) [Compound 5b, 3-Amino-4-mercapto-4-phenylbutane-1-sulfonic acid], the Ki was determined as 8000 nM.

In the case of `CC(C)CC(S)C(N)CCS(=O)(=O)O` (stereo not shown) [Compound 5c, 3-Amino-4-mercapto-6-methylheptane-1-sulfonic acid], the Ki is 4000 nM.

As for `NC(CCS(=O)(=O)O)C(S)Cc1ccccc1` (stereo not shown) [Compound 5d, 3-Amino-4-mercapto-5-phenylpentane-1-sulfonic acid], the Ki is 380 nM. Further, the “inhibitory activity compared with the reference compound (EC 33)” value (relative to EC 33) is reported as “of the same order as or greater than that of the reference compound”.

Take `N[C@H](CCS(=O)(=O)O)[C@@H](S)CCc1ccccc1` [Compound 5e1, (3R,4S)-3-Amino-4-mercapto-6-phenylhexane-1-sulfonic acid]: the Ki worked out at 1920 nM.

Turning to `N[C@@H](CCS(=O)(=O)O)[C@@H](S)CCc1ccccc1` [Compound 5e2, (3S,4S)-3-Amino-4-mercapto-6-phenylhexane-1-sulfonic acid], the Ki stood at 30 nM. For the same compound, for the setting “relative to EC 33”, the “APA-inhibiting activity greater than that of the reference compound (EC 33) by a factor” value came out at 10.

As for `N[C@@H](CCS(=O)(=O)O)[C@H](S)CCc1ccccc1` [Compound 5e3, (3S,4R)-3-Amino-4-mercapto-6-phenylhexane-1-sulfonic acid], the Ki was determined as 1040 nM.

Consider `N[C@H](CCS(=O)(=O)O)[C@H](S)CCc1ccccc1` [Compound 5e4, (3R,4R)-3-Amino-4-mercapto-6-phenylhexane-1-sulfonic acid], for which the Ki is 840 nM.

For the compound `NC(CCS(=O)(=O)O)C(S)CCc1ccccc1` (stereo not shown) [Compound 5e, 3-Amino-4-mercapto-6-phenylhexane-1-sulfonic acid], the Ki is 80 nM. In addition, the “inhibitory activity compared with the reference compound (EC 33)” value (relative to EC 33) is listed as “of the same order as or greater than that of the reference compound”.

For the compound `COc1ccc(CCC(S)C(N)CCS(=O)(=O)O)cc1` (stereo not shown) [Compound 5f, 3-Amino-4-mercapto-6-(4-methoxyphenyl)hexane-1-sulfonic acid], the Ki is 92 nM. The “inhibitory activity compared with the reference compound (EC 33)” value (relative to EC 33) is given as “of the same order as or greater than that of the reference compound”.

In the case of `COc1ccccc1CCC(S)C(N)CCS(=O)(=O)O` (stereo not shown) [Compound 5g, 3-Amino-4-mercapto-6-(2-methoxyphenyl)hexane-1-sulfonic acid], the Ki is 96 nM. The “inhibitory activity compared with the reference compound (EC 33)” value (relative to EC 33) was “of the same order as or greater than that of the reference compound”.

For `NC(CCS(=O)(=O)O)C(S)CCc1ccc(Br)cc1` (stereo not shown) [Compound 5h, 3-Amino-4-mercapto-6-(4-bromophenyl)hexane-1-sulfonic acid], the Ki amounted to 110 nM. Besides, where the note is “relative to EC 33”, the “inhibitory activity compared with the reference compound (EC 33)” value is listed as “of the same order as or greater than that of the reference compound”.

Consider `N[C@H](CS)CCS(=O)(=O)O` [EC 33, (S)-3-amino-4-mercaptobutylsulfonic acid, reference compound], for which the Ki worked out at 304 nM.
